From ChEMBL document CHEMBL2074139, “Increase in bile flow and biliary excretion of glutathione-derived sulfhydryls in rats by drug-metabolizing enzyme inducers is mediated by multidrug resistance protein 2” (Toxicol Sci, 2002)

Target: ATP-binding cassette sub-family C member 2 (Rattus norvegicus, UniProt Q63120)
Assay: TP_TRANSPORTER: Western in vivo SD rat, liver
Format: functional, organism-based, Sprague-Dawley

Sequence of ATP-binding cassette sub-family C member 2 (Q63120 whole entry): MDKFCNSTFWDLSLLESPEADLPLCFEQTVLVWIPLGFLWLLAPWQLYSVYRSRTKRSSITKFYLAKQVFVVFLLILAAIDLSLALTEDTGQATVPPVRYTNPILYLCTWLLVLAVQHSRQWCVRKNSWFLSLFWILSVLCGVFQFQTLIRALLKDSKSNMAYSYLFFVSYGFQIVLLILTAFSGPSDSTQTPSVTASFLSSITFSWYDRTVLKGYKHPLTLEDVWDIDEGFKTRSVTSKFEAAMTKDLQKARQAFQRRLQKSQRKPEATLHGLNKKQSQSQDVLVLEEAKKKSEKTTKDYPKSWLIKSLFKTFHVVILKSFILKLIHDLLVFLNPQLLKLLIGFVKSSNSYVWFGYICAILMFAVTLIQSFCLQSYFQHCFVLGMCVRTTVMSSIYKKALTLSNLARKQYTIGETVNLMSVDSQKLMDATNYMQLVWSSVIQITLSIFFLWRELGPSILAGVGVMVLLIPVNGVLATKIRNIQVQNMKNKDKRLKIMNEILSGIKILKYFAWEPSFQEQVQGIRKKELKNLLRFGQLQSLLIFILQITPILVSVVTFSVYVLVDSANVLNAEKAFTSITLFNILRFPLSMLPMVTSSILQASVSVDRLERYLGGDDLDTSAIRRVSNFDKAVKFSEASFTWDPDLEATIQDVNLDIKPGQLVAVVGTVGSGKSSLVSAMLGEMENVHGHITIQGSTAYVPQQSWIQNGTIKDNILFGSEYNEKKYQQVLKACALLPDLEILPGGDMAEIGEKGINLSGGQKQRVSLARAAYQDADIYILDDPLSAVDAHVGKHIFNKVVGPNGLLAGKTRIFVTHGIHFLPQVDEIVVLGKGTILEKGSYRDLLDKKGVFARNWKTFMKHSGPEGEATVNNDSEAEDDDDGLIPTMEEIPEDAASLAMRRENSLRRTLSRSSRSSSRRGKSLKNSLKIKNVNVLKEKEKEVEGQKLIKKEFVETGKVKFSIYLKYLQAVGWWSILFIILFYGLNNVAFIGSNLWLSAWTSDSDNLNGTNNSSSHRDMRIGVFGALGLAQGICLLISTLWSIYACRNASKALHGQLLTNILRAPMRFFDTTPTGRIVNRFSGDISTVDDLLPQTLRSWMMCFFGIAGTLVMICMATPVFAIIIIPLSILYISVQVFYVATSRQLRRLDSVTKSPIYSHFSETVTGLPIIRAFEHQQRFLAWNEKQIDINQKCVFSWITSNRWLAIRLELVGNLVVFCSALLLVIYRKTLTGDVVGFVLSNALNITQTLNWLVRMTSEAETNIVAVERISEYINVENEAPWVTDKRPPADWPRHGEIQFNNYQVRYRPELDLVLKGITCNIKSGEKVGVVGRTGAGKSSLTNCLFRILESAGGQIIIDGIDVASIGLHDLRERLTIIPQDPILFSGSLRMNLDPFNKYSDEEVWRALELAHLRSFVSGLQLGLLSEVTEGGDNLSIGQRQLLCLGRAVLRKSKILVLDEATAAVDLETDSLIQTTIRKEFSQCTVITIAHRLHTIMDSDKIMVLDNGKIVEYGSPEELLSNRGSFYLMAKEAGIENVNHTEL

SMILES | Activity
CC(=O)[C@H]1[C@H](C#N)C[C@H]2[C@@H]3CC=C4C[C@@H](O)CC[C@]4(C)[C@H]3CC[C@@]21C [PREGNENOLONE CARBONITRILE] | inducer [+]
CCC1(c2ccccc2)C(=O)NC(=O)NC1=O [PHENOBARBITAL] | inducer [+]
